Experimental findings from ChEMBL document CHEMBL4428076 (J Med Chem, 2016) are described below.

SMILES strings stand for the structures. Activity calls are given as the source filed them. The calls are words filed in the database; no cut-off is given here.

For data set [1], the target named is Kappa-type opioid receptor (Mus musculus, UniProt P33534). Put plainly: Displacement of [125I]-IBNtxA from mouse kappa opioid receptor-1 expressed in CHO cell membranes incubated for 90 mins. For orientation: Displacement assays read how much labelled ligand stays bound in the presence of the test substance.
Kappa-type opioid receptor, sequence (P33534 whole entry): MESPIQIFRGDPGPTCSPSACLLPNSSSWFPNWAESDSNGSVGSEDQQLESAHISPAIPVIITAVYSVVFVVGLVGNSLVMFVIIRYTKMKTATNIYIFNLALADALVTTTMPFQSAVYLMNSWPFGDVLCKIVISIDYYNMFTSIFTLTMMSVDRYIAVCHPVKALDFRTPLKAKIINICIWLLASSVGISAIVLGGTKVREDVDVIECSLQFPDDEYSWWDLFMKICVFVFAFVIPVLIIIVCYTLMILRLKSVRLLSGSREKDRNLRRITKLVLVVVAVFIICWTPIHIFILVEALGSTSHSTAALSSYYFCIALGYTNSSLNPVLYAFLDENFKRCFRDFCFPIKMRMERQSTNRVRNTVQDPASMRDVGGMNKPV
The target in data set [2] is Mu-type opioid receptor (Mus musculus) (UniProt P42866). Put plainly: Agonist activity at mouse mu opioid receptor-1 expressed in CHO cell membranes assessed as [35S]GTPgammaS binding incubated for 60 mins by scintillation spectroscopic analysis relative to DAMGO. The class given is functional. On the technique in general: GTPγS resists hydrolysis and so accumulates on activated G proteins.
Mu-type opioid receptor (Mus musculus), sequence (P42866 whole entry): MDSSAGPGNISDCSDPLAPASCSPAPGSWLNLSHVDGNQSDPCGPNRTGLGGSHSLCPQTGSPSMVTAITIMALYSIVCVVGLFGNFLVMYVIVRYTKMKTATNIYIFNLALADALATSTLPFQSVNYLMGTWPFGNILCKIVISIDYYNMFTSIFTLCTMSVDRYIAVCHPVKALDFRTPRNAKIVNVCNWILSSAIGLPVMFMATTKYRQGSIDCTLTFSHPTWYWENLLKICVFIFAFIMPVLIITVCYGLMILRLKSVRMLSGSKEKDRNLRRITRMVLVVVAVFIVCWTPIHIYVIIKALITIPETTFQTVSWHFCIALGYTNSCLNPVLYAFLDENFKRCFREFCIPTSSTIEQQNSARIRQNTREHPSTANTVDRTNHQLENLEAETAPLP

In data set [3] the test system is Mus musculus. Kind of data set: Antinociceptive activity in MOR-1 6TM/E11 splice variant knock out sc dosed C57BL/6 mouse assessed as increase in reaction time by radiant heat tail flick assay. The note with it: C57BL/6, sc. It is filed as functional.
Data set [4] concerns the target T1, Alpha-2C adrenergic receptor (Homo sapiens) (UniProt P18825).
T1 sequence (whole entry): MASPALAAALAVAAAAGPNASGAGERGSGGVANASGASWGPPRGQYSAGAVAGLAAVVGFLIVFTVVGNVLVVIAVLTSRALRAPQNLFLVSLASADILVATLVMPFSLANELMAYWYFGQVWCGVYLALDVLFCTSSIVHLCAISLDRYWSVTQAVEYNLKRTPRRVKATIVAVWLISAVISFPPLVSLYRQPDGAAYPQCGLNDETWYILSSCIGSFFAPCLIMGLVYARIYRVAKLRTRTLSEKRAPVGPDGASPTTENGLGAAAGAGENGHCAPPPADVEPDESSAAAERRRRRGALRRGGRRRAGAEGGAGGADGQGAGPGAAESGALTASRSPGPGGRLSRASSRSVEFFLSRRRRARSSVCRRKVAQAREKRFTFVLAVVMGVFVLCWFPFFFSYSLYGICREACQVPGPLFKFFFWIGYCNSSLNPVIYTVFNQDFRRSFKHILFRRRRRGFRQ
Kind of data set: Displacement of [3H]rauwolscine from recombinant human adrenergic alpha2C receptor expressed in MDCK cell membrane after 90 mins by microbeta scintillation counting method.

For data set [5], the system named is Mus musculus. Put plainly: Antinociceptive activity in sc dosed CD-1 mouse assessed as increase in reaction time measured 15 mins post dose by radiant heat tail flick assay. It is filed as functional. The note with it: CD-1, sc, 0.25 h.
Data set [6] has as its system Mus musculus. Kind of data set: Antinociceptive activity in icv dosed CD-1 mouse assessed as increase in reaction time measured 15 mins post dose by radiant heat tail flick assay. It is filed as functional.
Data set [7] deals with Mus musculus. Put plainly: Antinociceptive activity in CD-1 mouse assessed as increase in reaction time at 1.5 mg/kg, sc measured 15 mins post dose in presence of opioid antagonist naloxone by radiant heat tail flick assay. The class given is functional, organism-based.
Data set [8] concerns Mus musculus. Kind of data set: Antinociceptive activity in CD-1 mouse assessed as increase in reaction time at 1.5 mg/kg, sc measured 15 mins post dose in presence of kappa opioid receptor antagonist norBNI by radiant heat tail flick assay. The class given is functional, organism-based.
Data set [9] deals with Mus musculus. Kind of data set: Antinociceptive activity in CD-1 mouse assessed as increase in reaction time at 1.5 mg/kg, sc measured 15 mins post dose in presence of adrenergic alpha2 receptor antagonist yohimbine by radiant heat tail flick assay. It is filed as functional, organism-based.
The subject of data set [10] is Mus musculus. Put plainly: Antinociceptive activity in CD-1 mouse assessed as increase in reaction time at 1.5 mg/kg, sc administered on day 6 after DOR1-exon3 antisense oligodeoxynucleotide injection on day 1, 3 and 5 by radiant heat tail flick assay. The class given is functional, organism-based. In general terms: Hot-plate and tail-flick tests time the reaction to a heat stimulus.

For data set [11], the system named is Mus musculus. Put plainly: Antinociceptive activity in sc dosed CD-1 mouse assessed as increase in reaction time administered twice daily at dosing intervals of 12 hrs for 5 days by radiant heat tail flick assay. It is filed as functional. The note with it: CD-1, sc.
Data set [12] relates to Mus musculus. Put plainly: Ratio of ED50 for sc dosed CD-1 mouse administered twice daily at dosing intervals of 12 hrs for 5 days to ED50 for sc dosed CD-1 mouse measured 15 mins post dose. The class given is functional.
For data set [13], the system named is Mus musculus. Kind of data set: Antinociceptive activity in sc dosed CD-1 mouse assessed as increase in AUC of reaction time administered twice daily at dosing intervals of 12 hrs for 29 days by radiant heat tail flick assay relative to morphine. The class given is functional.
For data set [14], the system named is Mus musculus. Kind of data set: Antinociceptive activity in sc dosed CD-1 mouse assessed as increase in reaction time administered four times per day for 5 days by radiant heat tail flick assay. It is filed as functional. The settings on record: CD-1, sc, 120 h.
The nature of data set [15]: Toxicity in CD-1 mouse assessed as physical dependence by measuring number of jumps at 1.5 mg/kg, sc bid for 22 days followed by opioid antagonist naloxone injection on day 22 measured for 15 mins post last dose. The class given is organism-based. The note with it: in vivo, 0.25 h.
Data set [16] can be described thus: Toxicity in CD-1 mouse assessed as physical dependence by measuring number of jumps at 1.5 mg/kg, sc bid for 29 days followed by opioid antagonist naloxone injection on day 29 measured for 15 mins post last dose. It is filed as organism-based. The note with it: in vivo, 0.25 h.
Data set [17] is described as follows: Toxicity in CD-1 mouse assessed as inhibition of gastrointestinal transit by measuring distance traveled by charcoal at 1.5 mg/kg, sc followed by charcoal meal administration measured after 30 mins. The class given is organism-based. The note with it: in vivo, 0.5 h.
Data set [18] can be described thus: Toxicity in C57BL/6 mouse assessed as decrease in respiratory rate at 1.2 mg/kg, sc measured at 15 to 35 mins post dose. It is filed as organism-based. The settings on record: in vivo.

In data set [1], `CC[C@@H]1CN2CC[C@]3(Nc4cccc(OC)c4C3=O)[C@@H]2C[C@@H]1/C(=C\OC)C(=O)OC` came in with a Ki of 0.024 µM. The Emax in [2] turned out to be 84%. The ED50 with Mus musculus [3] is 1.4 mg/kg; with Mus musculus [5] it was 0.76 mg/kg; in the data set on Mus musculus [6], 0.38 µg; in the data set with Mus musculus [11], 1.1 mg/kg; in the data set with Mus musculus [14], 1.6 mg/kg. The inhibition entry in data set [4] is “Active”. In the data set with Mus musculus [7], the outcome was inactive. Also, the result in the data set with Mus musculus [8], in the data set with Mus musculus [9] and with Mus musculus [10] was Active. Further, in the data set with Mus musculus [12], the “Ratio ED50” value is reported as less than 2. Also, the “fold change (FC)” value with Mus musculus [13] was 6. The Activity in data set [15] is reported as 13; in data set [16], 14; in data set [17] it was “Toxic”; in [18] it was “Non-Toxic”.

Usually Ki stands for the dissociation constant of the complex between target and ligand, obtained from inhibition or displacement. A low value points to higher affinity. By Emax is commonly meant the maximal effect, on the per cent scale that the assay sets.
